Laboratory results taken from US4742064A, “Antiviral carbocyclic analogs of xylofuranosylpurines” (Regents of the University of Minnesota, priority 1985, dated 1988).
pIC50: −log10 of the molar value. “Also recorded” adds a separate entry of the source.

Experiments:
[1] = system: P-388 mouse leukemia cells; assay: P-388 mouse leukemia cell culture cytotoxicity assay; type: cell-based; details: for pIC50: Mus musculus, P388, P-388 leukemia cells in culture, read-out: ED50 (inhibitory concentration, cytotoxicity); for cytotoxicity (in words) / cytotoxicity relative to the corresponding non-aza analogs 9a and 10a (in words): P-388 mouse leukemia cell culture
Excerpt: *Assay Technique: R. G. Almquist and R. Vince, J. Med. Chem., 16, 1396

HSV-2 (MS) = assay: cytopathogenic effects (CPE)-inhibition procedure, HSV-2, Vero cells; details: for VR (virus rating), HSV-2 (MS): HSV-2 strain MS, Vero cell monolayers, VR ≥ 1.0 = definite activity, 0.5-0.9 marginal to moderate, < 0.5 usually no significant activity; for antiviral activity against HSV-2 (in words): Table II data
Excerpt: (§1) The analogs were evalulated by a cytopathogenic effects (CPE)-inhibition procedure. The host cell culture systems employed were pre-grown Vero cell monolayers.
(§2) *VR = virus rating: A measurement of selective antiviral activity which
(§3) takes into account the degree of inhibition of virusinduced cytopathogeni
(§4) effects (CPE) and the degree of cytotoxicity produced by the test
(§5) compound, determined by a modification of the method of Ehrlich et al.
(§6) definite (+) antiviral activity, a VR of 0.5-0.9 indicates marginal to
(§7) moderate (+) antiviral activity, and a VR < 0.5 usually indicates no (-)
significant antiviral activity.

HSV-1 (E-377) = assay: cytopathogenic effects (CPE)-inhibition procedure, HSV-1, Vero cells; details: for VR (virus rating), HSV-1 (E-377): HSV-1 strain E-377, Vero cell monolayers, VR ≥ 1.0 = definite activity, 0.5-0.9 marginal to moderate, < 0.5 usually no significant activity; for antiviral activity against HSV-1 (in words): Table II data
Excerpt: as §1, §2, §3, §4, §5, §6, §7
significant antiviral activity.

influenza virus = assay: activity against an influenza virus; type: cell-based
HSV-2 = details: prior literature; cited from earlier work
HSV-1 = details: prior literature; cited from earlier work

COc1nc(N)nc2c1nnn2[C@@H]1C[C@H](CO)[C@H](O)[C@H]1O (relative stereo) [Compound 12, (d1)-(1 α,2 β,3 α,5 α)-3-(5-Amino-7-methoxy-3H-1,2,3-triazalo [4,5-d]pyrimidin-3-yl)-5-(hydroxymethyl)-1,2-cyclopentanediol]
pIC50 [1]: 4.20

Nc1nc2c(nnn2[C@@H]2C[C@H](CO)[C@H](O)[C@H]2O)c(=O)[nH]1 (relative stereo) [Compound 13a, (d1)-5-Amino-3,6-dihydro-3-[(1 α,2 β,3 α,5 α)-2,3-dihydroxy-4-(hydroxymethyl)cyclopentyl]-7H-1,2,3-triazalo[4,5-d]pyrimidin-7-one]
VR (virus rating), HSV-2 (MS) (HSV-2 (MS)): 1.3
antiviral activity against HSV-2 (in words) (HSV-2 (MS)): active
VR (virus rating), HSV-1 (E-377) (HSV-1 (E-377)): 2.4
antiviral activity against HSV-1 (in words) (HSV-1 (E-377)): substantial antiviral activity
activity against an influenza virus (in words) (influenza virus): significant activity
pIC50 [1]: 5.80
cytotoxicity (in words) [1]: inhibition at the lowest concentration; also recorded: significant cytotoxicities
cytotoxicity relative to the corresponding non-aza analogs 9a and 10a (in words) [1]: more active

Nc1nc(Cl)c2nnn([C@@H]3C[C@H](CO)[C@H](O)[C@H]3O)c2n1 (relative stereo) [Compound 11, (d1)-(1 α,2 β,3 α,5 α)-3-(5-Amino-7-Chloro-3H-1,2,3-triazalo [4,5-d]pyrimidin-3-yl)-5-(hydroxymethyl)-1,2-cyclopentanediol]
pIC50 [1]: 4.30

Nc1nc(N)c2ncn([C@@H]3C[C@H](CO)[C@@H](O)[C@@H]3O)c2n1 (relative stereo)
activity against HSV-2 (in words) (HSV-2): inactive
activity against HSV-1 (in words) (HSV-1): exhibited activity

Nc1nc(N)c2ncn([C@@H]3C[C@H](CO)[C@H](O)[C@H]3O)c2n1 (relative stereo) [Compound 10a]
VR (virus rating), HSV-1 (E-377) (HSV-1 (E-377)): 2.7
antiviral activity against HSV-1 (in words) (HSV-1 (E-377)): substantial antiviral activity
pIC50 [1]: 4.41

Nc1nc(N)c2nnn([C@@H]3C[C@H](CO)[C@H](O)[C@H]3O)c2n1 (relative stereo) [Compound 14a, (d1)-(1 α,2 β,3 α,5 α)-3-(5,7-Diamino-3H-1,2,3-triazalo[4,5-d]pyrimidin-3-yl)-5-(hydroxymethyl)-1,2-cyclopentanediol]
VR (virus rating), HSV-1 (E-377) (HSV-1 (E-377)): 2.0
antiviral activity against HSV-1 (in words) (HSV-1 (E-377)): substantial antiviral activity
pIC50 [1]: 5.28
cytotoxicity (in words) [1]: significant cytotoxicities
cytotoxicity relative to the corresponding non-aza analogs 9a and 10a (in words) [1]: more active

Nc1nc(Cl)c2ncn([C@@H]3C[C@H](CO)[C@H](O)[C@H]3O)c2n1 (relative stereo) [Compound 8, (d1)-(1 α, 2 β, 3 α, 5 α)-3-(2-Amino-6-chloro-9H-purin-9-yl)-5-(hydroxymethyl)-1,2-cyclopentanediol]
pIC50 [1]: 3.66

Nc1ncnc2c1ncn2[C@@H]1O[C@H](CO)[C@@H](O)[C@@H]1O.O [Ara-A, 9-β-D-arabinofuranosyladenine monohydrate, reference compound]
VR (virus rating), HSV-2 (MS) (HSV-2 (MS)): 1.6
VR (virus rating), HSV-1 (E-377) (HSV-1 (E-377)): 1.7

Nc1nc2c(ncn2[C@@H]2C[C@H](CO)[C@H](O)[C@H]2O)c(=O)[nH]1 (relative stereo) [Compound 9a, (d1)-2-Amino-1,9-dihydro-9-[(1 α,2 β,3 α,4 α)-2,3-dihydroxy-4-(hydroxymethyl)cyclopentyl]-6H-purin-6-one]
VR (virus rating), HSV-2 (MS) (HSV-2 (MS)): 3.9
antiviral activity against HSV-2 (in words) (HSV-2 (MS)): active
VR (virus rating), HSV-1 (E-377) (HSV-1 (E-377)): 5.6
antiviral activity against HSV-1 (in words) (HSV-1 (E-377)): substantial antiviral activity
profile of activity in the antiviral assay (in words) (HSV-1 (E-377); comparison among analogs of Table II): best profile of activity
pIC50 [1]: 5.05
cytotoxicity (in words) [1]: significant cytotoxicities
